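Grown in 96-well plates, cells were treated for 48 hours with each compound at five concentrations. Insufficient inhibition: endpoint recorded as highest concentration tested. GI50 is the concentration that inhibits growth by half.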 Activity calls are given as the source filed them. Rule as the data show it: active = GI50 up to about 1.1 µM and inactive = higher.
Tests used:
Assay in all cases: NCI anticancer screen, dose series, 48 h
[1] = system: 786-0
[2] = system: A549
[3] = system: BT-549
[4] = system: CAKI-1
[5] = system: CCRF-CEM
[6] = system: HCT-116
[7] = system: HL-60
[8] = system: IGROV-1
[9] = system: KM12
[10] = system: MDA-MB-435
[11] = system: NCI-H460
[12] = system: OVCAR-5
[13] = system: OVCAR-8
[14] = system: RXF 393
[15] = system: SK-MEL-5
[16] = system: SK-OV-3
[17] = system: SN12C
[18] = system: SNB-19
[19] = system: TK-10

Measured: GI50

CCN(CC)c1ccc(/C=C/C=C2C(=O)NC(=S)NC2=O)cc1
inactive: [1] 27.7 µM | [2] > 100 µM | [3] 13.1 µM | [4] > 100 µM | [5] 2.81 µM | [6] 30.9 µM | [7] 2.62 µM | [8] > 100 µM | [9] 38 µM | [10] 8.67 µM | [11] > 100 µM | [12] > 100 µM | [13] 14.3 µM | [14] 8.07 µM | [15] 37.5 µM | [16] > 100 µM | [17] 29.9 µM | [18] 43.7 µM | [19] > 62.2 µM

CC(=O)n1nc(-c2ccccc2)n(/N=C/c2ccc([N+](=O)[O-])o2)c1=O
inactive: [1] 2.21 µM | [2] 7.21 µM | [3] 8.32 µM | [4] 9.46 µM | [5] 1.6 µM | [6] 1.47 µM | [7] 3.59 µM | [8] 15.9 µM | [9] 16.4 µM | [10] 6.5 µM | [11] 7.06 µM | [12] 1.47 µM | [13] 9.93 µM | [14] 5.93 µM | [15] 7.13 µM | [16] 16.6 µM | [17] 2.13 µM | [18] 16.3 µM | [19] 11.5 µM

CC(CN1NC12CCCC2)N1NC12CCCC2 (stereo not given)
inactive: [1] > 100 µM | [2] > 100 µM | [3] > 100 µM | [4] > 100 µM | [5] > 100 µM | [6] > 100 µM | [7] > 100 µM | [8] > 100 µM | [9] > 100 µM | [10] > 100 µM | [11] > 100 µM | [12] > 100 µM | [13] > 100 µM | [14] > 100 µM | [15] > 100 µM | [16] > 100 µM | [17] > 100 µM | [18] > 100 µM | [19] > 100 µM

CC1=CCC[C@@H]2[C@@](C)(Cc3cc(O)ccc3O)[C@H](C)CC[C@@]12C
inactive: [1] 6.49 µM | [2] 4.94 µM | [3] 5.47 µM | [4] 11.3 µM | [5] 2.1 µM | [6] 5.13 µM | [7] 1.81 µM | [8] 4.76 µM | [9] 4.54 µM | [10] 5.2 µM | [11] 5.83 µM | [12] 13.4 µM | [13] 5.45 µM | [14] 6.44 µM | [15] 5.43 µM | [16] 12.6 µM | [17] 9.2 µM | [18] 7.57 µM | [19] 9.08 µM

N=C1OC(CN2CCN(c3ccccc3)CC2)CN1C(=S)Nc1ccccc1 (stereo not given)
inactive: [1] > 100 µM | [2] 94.8 µM | [3] 62.2 µM | [4] 95.5 µM | [5] 37.1 µM | [6] > 100 µM | [7] 31 µM | [8] 92.7 µM | [9] 39.2 µM | [10] 76.6 µM | [11] 63.1 µM | [12] 97.5 µM | [13] 99.3 µM | [14] 41.1 µM | [15] 35.8 µM | [16] > 100 µM | [17] > 100 µM | [18] 96.4 µM | [19] 43.5 µM

CC(=O)N(C(C)=O)c1ncc(-n2nc(-c3ccccc3)cc2-c2ccccc2)c(-c2ccccc2)n1
inactive: [1] > 10 µM | [2] > 10 µM | [3] > 10 µM | [4] > 10 µM | [5] 9.75 µM | [6] 4.82 µM | [7] 7.83 µM | [8] > 10 µM | [9] 6.17 µM | [10] 3.52 µM | [11] > 10 µM | [12] > 10 µM | [13] > 10 µM | [14] > 10 µM | [15] 4.12 µM | [16] > 10 µM | [17] > 10 µM | [18] > 10 µM | [19] > 10 µM

O=C(Nc1ccc2ccccc2c1)c1cc2cc(CCl)ccc2oc1=O
inactive: [1] 39.4 µM | [2] > 100 µM | [3] 44 µM | [4] > 100 µM | [5] 55.5 µM | [6] > 100 µM | [7] > 100 µM | [8] > 100 µM | [9] > 100 µM | [10] > 100 µM | [11] > 100 µM | [12] > 100 µM | [13] > 100 µM | [14] 22 µM | [15] > 100 µM | [16] 38.5 µM | [17] > 100 µM | [18] 27.6 µM | [19] 33.2 µM

Brc1ccc(/C(N=N/C(=N\Sc2ccccc2)c2ccc(Br)cc2)=N/Sc2ccccc2)cc1
inactive: [1] > 100 µM | [2] > 100 µM | [3] > 100 µM | [4] > 100 µM | [5] > 100 µM | [6] > 100 µM | [7] > 100 µM | [8] > 100 µM | [9] > 62.1 µM | [10] > 100 µM | [11] > 100 µM | [12] > 100 µM | [13] > 100 µM | [14] > 100 µM | [15] > 100 µM | [16] > 100 µM | [17] > 100 µM | [18] > 100 µM | [19] > 100 µM

C/C(=N\N=C1/C(=O)OC(c2ccccc2)=C1C(=O)c1ccccc1)c1ccc([N+](=O)[O-])cc1
inactive: [1] 68.7 µM | [2] 41.7 µM | [3] 25.9 µM | [4] 48.2 µM | [5] 25.6 µM | [6] 91.4 µM | [7] 35.8 µM | [8] 29.2 µM | [9] 86.3 µM | [10] 46.7 µM | [11] 56.1 µM | [12] 72.3 µM | [13] 35.7 µM | [14] 46 µM | [15] 37 µM | [16] 85.3 µM | [17] 49.4 µM | [18] > 100 µM | [19] > 100 µM

COC(=O)c1c(OC(C)=O)ccc2c1c1c(n2Cc2ccccc2)C(=O)c2ccccc2C1=O
inactive: [1] 25.6 µM | [2] 26.4 µM | [3] 23.2 µM | [4] 22 µM | [5] 36.3 µM | [6] 15.7 µM | [7] 25.8 µM | [8] 20.1 µM | [9] 20.5 µM | [10] 18.7 µM | [11] 30.1 µM | [12] 20.1 µM | [13] 27.7 µM | [14] 18.8 µM | [15] 14.2 µM | [16] 23.6 µM | [17] 19.1 µM | [18] 35.3 µM | [19] 33.7 µM

— ChEMBL document CHEMBL1201862, “PubChem BioAssay data set” (2004)
